Values of other authors, collected in article PMC3989431 (Peptides, 2013).

Tested on: H. zea pupae
Conditions: earlier in vivo bioassay

AWFGPRLa
in vivo activity: without in vivo activity
